Laboratory results: ChEMBL document CHEMBL1201862, “PubChem BioAssay data set” (2004)
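Following 48 hours of exposure in 96-well plates, responses at five concentrations were used to interpolate endpoints linearly. The concentration for 50% growth inhibition is given as GI50.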 Activity calls are given as the source filed them. Rule as the data show it: active = GI50 up to about 1.1 µM and inactive = higher.

Assays:
Assay in all cases: NCI-60 cell line screen, 48 h
[1] = system: 786-0
[2] = system: A498
[3] = system: A549
[4] = system: ACHN
[5] = system: CAKI-1
[6] = system: CCRF-CEM
[7] = system: COLO 205
[8] = system: DLD-1
[9] = system: DMS-114
[10] = system: DMS-273
[11] = system: EKVX
[12] = system: HCC 2998
[13] = system: HCT-116
[14] = system: HCT-15
[15] = system: HL-60
[16] = system: HOP-18
[17] = system: HOP-62
[18] = system: HOP-92
[19] = system: HT-29
[20] = system: IGROV-1
[21] = system: K562
[22] = system: KM-20L2
[23] = system: KM12
[24] = system: LOX IMVI
[25] = system: LXFL 529
[26] = system: M14
[27] = system: M19-MEL
[28] = system: MOLT-4
[29] = system: Malme-3M
[30] = system: NCI-H226
[31] = system: NCI-H23
[32] = system: NCI-H460
[33] = system: NCI-H522
[34] = system: OVCAR-3
[35] = system: OVCAR-4
[36] = system: OVCAR-5
[37] = system: OVCAR-8
[38] = system: RPMI-8226
[39] = system: RXF 393
[40] = system: SF-268
[41] = system: SF-295
[42] = system: SF-539
[43] = system: SK-MEL-28
[44] = system: SK-MEL-2
[45] = system: SK-MEL-5
[46] = system: SK-OV-3
[47] = system: SN12C
[48] = system: SNB-19
[49] = system: SNB-75
[50] = system: SNB-78
[51] = system: SR
[52] = system: SW-620
[53] = system: TK-10
[54] = system: U-251
[55] = system: UACC-257
[56] = system: UACC-62
[57] = system: UO-31
[58] = system: XF498

Measured: GI50

COc1ccc(-c2cnoc2-c2ccc(OC)c(OC)c2)cc1OC
active: [9] 0.441 µM | [10] 0.314 µM | [12] 1.05 µM | [15] 0.313 µM | [17] 1.1 µM | [21] 0.445 µM | [23] 0.746 µM | [26] 0.851 µM | [27] 0.891 µM | [28] 0.893 µM | [33] 0.556 µM | [41] 0.883 µM | [44] 1.08 µM | [45] 0.908 µM | [51] 0.318 µM | [52] 0.414 µM | [56] 0.406 µM
0.4 µM: [14]
inactive: [1] 1.64 µM | [2] 1.6 µM | [3] 3.02 µM | [4] 4.68 µM | [5] 2.35 µM | [6] 1.73 µM | [7] 1.18 µM | [8] 2.12 µM | [11] 1.31 µM | [13] 1.26 µM | [16] 6.14 µM | [18] 2.67 µM | [19] 1.27 µM | [20] 1.29 µM | [22] 4.66 µM | [24] 1.42 µM | [25] 1.83 µM | [29] 2.15 µM | [30] 1.71 µM | [31] 1.24 µM | [32] 2.48 µM | [34] 1.31 µM | [35] 18.9 µM | [36] 3.72 µM | [37] 3.1 µM | [38] 1.54 µM | [39] 1.23 µM | [40] 2.32 µM | [42] 1.2 µM | [43] 1.62 µM | [46] 1.47 µM | [47] 3.04 µM | [48] 4.15 µM | [49] 1.78 µM | [50] 7.62 µM | [53] 3.85 µM | [54] 2.34 µM | [55] 5.53 µM | [57] 4.46 µM | [58] 1.75 µM

CC(C)(C)/N=C\N1CCC(C(c2ccccc2)c2ccccc2)CC1
55.3 µM: [14]
inactive: [1] > 100 µM | [2] 38.3 µM | [3] 98.4 µM | [4] 82.4 µM | [5] 42.4 µM | [7] 19.1 µM | [8] > 100 µM | [9] 72.1 µM | [10] 65.3 µM | [11] > 100 µM | [13] 50 µM | [16] 53.2 µM | [17] > 100 µM | [18] 31.7 µM | [19] 21.6 µM | [20] > 100 µM | [21] 35.1 µM | [22] 14.9 µM | [23] 65.8 µM | [24] 23.8 µM | [27] 37.2 µM | [29] 18.2 µM | [31] > 100 µM | [32] 87.7 µM | [34] 80.5 µM | [35] 46.8 µM | [36] 54.2 µM | [37] > 100 µM | [38] 45.2 µM | [39] 22.9 µM | [40] 49.8 µM | [41] > 100 µM | [42] 78.7 µM | [43] 43.4 µM | [44] > 100 µM | [45] 67 µM | [47] 78.3 µM | [48] > 100 µM | [49] 21.9 µM | [50] 64.6 µM | [52] > 100 µM | [53] 40.6 µM | [54] 60.4 µM | [55] 37.3 µM | [56] 35.7 µM | [58] 30.8 µM
